# In patent US4774248A, “Methods of treating depression and depressive states using 5-phenyl-1,4,5,6-tetrahydropyrimidine derivatives” (priority 1985, dated 1988):
# “Also recorded” adds a separate entry of the source.
# What was measured:
# mice [1] = assay: Electric shock; format: in vivo; conditions: i.p.
# Procedure: (§1) The results of toxicological and neuropsychopharmacological tests which were carried out with the products according to the invention have been summarized below. In these tests, solutions of the said products in distilled water were administered intraperitoneally in a volume of 20 ml/kg to male mice and in a volume of 5 ml/kg to male rats.
# The test is performed on groups of 10 mice 30 minutes after the administration of CRL 41 378.
# mice [2] = assay: Overall behavior and reactivities in mice; format: in vivo; conditions: i.p.
# Procedure: as §1
# (§2) Groups of 3 animals are observed before and then 0.25 h, 0.50 h, 1 h, 2 h, 3 h and 24 h after the administration of CRL 41 378. The following observations are made:
# (§3) Groups of 3 animals are observed before and then 0.25 h, 0.50 h, 1 h, 2 h, 3 h and 24 h after the administration of CRL 41 329.
# [3] = test system: stereotypies induced by apomorphine; assay: Interaction with apomorphine in rats; format: in vivo; conditions: i.p., apomorphine 0.5 mg/kg s.c.
# Procedure: as §1
# CRL 41 378 is administered to groups of 12 rats 0.5 h before the subcutaneous injection of 0.5 mg/kg of apomorphine.
# [4] = test system: hypothermia, righting behavior and stereotypies induced by apomorphine; assay: Interaction with apomorphine in mice; format: in vivo; conditions: i.p.
# Procedure: as §1
# CRL 41 378 is administered to groups of 6 mice 30 minutes before the subcutaneous injection of 1 or 16 mg/kg of apomorphine.
# mice [5] = assay: Motility reduced by hypoxic aggression (acute hypobaric anoxia); format: in vivo; conditions: i.p.
# Procedure: In these tests, solutions of the said products in distilled water were administered intraperitoneally in a volume of 20 ml/kg to male mice and in a volume of 5 ml/kg to male rats.
# [6] = test system: hypothermia and ptosis induced by reserpine; assay: Interaction with reserpine; format: in vivo; conditions: mice, i.p.; reserpine 2.5 mg/kg
# Procedure: as §1
# Four hours after the intraperitoneal injection of 2.5 mg/kg of reserpine, groups of 12 mice receive CRL 41 378.
# [7] = test system: central nervous system (CNS); assay: Neuropsychopharmacological profile (conclusions of the tests); format: in vivo, mice and rats; conditions: i.p.
# Procedure: as §1
# mice [8] = assay: Spontaneous motility (actimeter); format: in vivo; conditions: i.p.
# Procedure: as §1
# 0.5 h after they have received CRL 41 378, the mice (6 per dose, 12 control animals) are placed in an actimeter, where their motility is recorded for 30 minutes.
# male mice = assay: Acute toxicity, intraperitoneal (LD0, LD30, LD60, LD100); format: in vivo
# Procedure: as §1
# [9] = as above; format: in vivo; conditions: mouse, in vivo, ip; 128 mg/kg i.p., male mice; read-out: death 24 h after administration
# Procedure: as §1
# [10] = test system: hypothermia, trembling and peripheral cholinergic symptoms induced by oxotremorine; assay: Interaction with oxotremorine; format: in vivo; conditions: mice, i.p.; oxotremorine 0.5 mg/kg
# Procedure: as §1
# CRL 41 378 is administered to groups of 6 mice 0.5 h before the intraperitoneal injection of 0.5 mg/kg of oxotremorine.
# rats = assay: Overall behavior and reactivities in rats; format: in vivo; conditions: i.p.
# Procedure: as §1, §2, §3
# mice [11] = assay: Intergroup aggressiveness; format: in vivo; conditions: mice, i.p.
# Procedure: as §1
# After they have stayed for 3 weeks in the two halves of a cage divided by an opaque partition, groups of 3 mice receive CRL 41 378. Half an hour later, the two groups from the same cage are brought together by removal of the partition and the number of fights which occur in 10 minutes is noted.
structure (smiles),measurement,setting,value
"Cl.Clc1ccc(C2CN=CNC2)cc1 (stereo not drawn) [CRL 41 336, 5-(4-chlorophenyl)-1,4,5,6-tetrahydropyrimidine hydrochloride]",lethal effects of electric shock,mice [1],aggravation of the lethal effect of electric shock
same,moderate hypothermia,"mice [2]; 32 mg/kg, from 1 to 3 hours",-1.3 °C
same,overall behavior and reactivities,"mice [2]; 32 mg/kg, hydrochloride",sedation for 0.25 h; also recorded: a decrease in the breathing rate from 1 to 3 hours; also recorded: moderate hypothermia; also recorded: vasodilation of the ears and tail from 0.5 h to 3 h
same,overall behavior and reactivities,mice [2]; 0.5 to 8 mg/kg,no distinct modification of the behavior and reactivities
same,action on stereotypies induced by apomorphine,[3],decreases the stereotypies induced by apomorphine in rats and mice
same,action on hypothermia induced by apomorphine,[4],distinct antagonism of the hypothermia induced by apomorphine and oxotremorine
same,action on righting behavior and stereotypies due to apomorphine,[4],decreases the stereotypies induced by apomorphine in rats and mice
same,motor recovery after acute hypobaric hypoxia,mice [5],a decrease in the motility after acute hypobaric hypoxia
same,action on hypothermia induced by reserpine,[6],more moderate antagonism of the hypothermia induced by reserpine
same,antidepressant effects,[7],antidepressant effects
same,peripheral α-adrenergic stimulant effects,[7],"peripheral α-adrenergic stimulant effects appearing at high doses, especially as mydriasis and piloerection in rats"
same,sedative effects,[7]; hydrochloride,sedation in mice and rats; also recorded: hypothermia (transient) in mice
same,spontaneous motor activity,mice [8],a decrease in the spontaneous motor activity
same,toxic signs in the animals treated,male mice; 64 mg/kg i.p.,all the animals treated exhibit sedation and a decrease in the breathing rate
same,toxic signs in the animals treated,male mice; 128 mg/kg i.p.,the animals exhibit sedation and a decrease in the breathing rate
same,LD0 (maximum non-lethal dose),male mice; intraperitoneal,greater than 64 mg/kg
same,LD60,male mice; intraperitoneal,about 128 mg/kg
same,LD100 (minimum dose lethal to all the animals),male mice; intraperitoneal,200 to 210 mg/kg
same,mortality at 24 h,[9],60%
same,action on hypothermia induced by oxotremorine,[10],distinct antagonism of the hypothermia induced by apomorphine and oxotremorine
same,overall behavior and reactivities,rats; 4 mg/kg,mydriasis for 2 hours (maximum 0.5 h after administration)
same,overall behavior and reactivities,"rats; 16 mg/kg, hydrochloride",sedation for 3 h; also recorded: a decrease in the breathing rate for 3 h; also recorded: mydriasis for 3 h (with its maximum intensity 0.5 h after administration); also recorded: piloerection for 1 h; also recorded: vasodilation (of the paws) for 2 h
same,overall behavior and reactivities,rats; 0.25 and 1 mg/kg,"behavior, reactivities and variations in rectal temperature and pupil diameter which are substantially comparable to those of the animals in the control group"
same,intergroup aggressiveness (number of fights),mice [11],a decrease in the intergroup aggressiveness in mice
